Assay results taken from EPA's ToxValDB 9.5 (doi:10.2903/j.efsa.2011.2018).
Values after ≈ are worked out from the molar mass of the structure shown.

Experiments:
Anas platyrhynchos = settings: short-term; oral; feed; mortality
Apis mellifera = settings: acute; duration: 48 hours; dermal; mortality
Folsomia candida = settings: chronic/long-term; duration: 28 days; mortality
Lepomis macrochirus = settings: acute; duration: 96 hours; mortality
Tagia sp. = settings: acute; duration: 14 days; mortality
Aphidius rhopalosiphi = assay: LR50; higher = less toxic; settings: not reported; mortality

With `[O-][n+]1nc(-n2ccnc2)nc2ccc(Cl)cc21` [Triazoxide] the LC50 (Anas platyrhynchos) was 268 mg/kg-day, the LD50 (Apis mellifera) was > 200 µg/piece and the LD50 (Coturnix japonica; acute, oral, mortality) was 90 mg/kg-day. It also gave an NOEC (Coturnix japonica; reproduction developmental, duration: 6 weeks) of 11.7 mg/kg-day, an NOEC (Folsomia candida) of 500 mg/kg and an LC50 (Lepomis macrochirus) of 0.077 µg/mL (≈ 0.311 µM). It also gave an LD50 (Rattus norvegicus; acute, oral, mortality) of 14 mg/kg-day, an LOAEL (Rattus norvegicus; chronic, duration: 2 years, gross pathology) of 0.05 mg/kg-day and an NOEL (Rattus norvegicus; reproduction developmental, no effects) of 2.04 mg/kg-day. The NOAEL (Rattus norvegicus; short-term, duration: 28 days) was 1.5 mg/kg-day, the NOAEL (Rattus norvegicus; subchronic, duration: 90 days, oral, hematological) was 0.21 mg/kg-day and the LC50 (Tagia sp.) was > 1000 mg/kg. The LR50 (Aphidius rhopalosiphi) was > 5.13 g/ha.
